Measurements as given in patent US20260184675A1, “CHIRAL ISOMERIC SULFITE COMPOUND AND APPLICATION THEREOF” (Chengdu Hanova BioSciences Co., Ltd, priority 2024, published 2026).

Experiments:
Assay type in all cases: in vivo
eggs of Thrips = test: Effect on hatching of eggs of Thrips, leaf disc method; details: 100 ppm; for Hatching rate (%): 5 days after insecticide delivery
Method in brief: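 Egg-bearing Vicia faba leaf discs (diameter 2.0 cm, wetted filter paper beneath) were counted microscopically for baseline eggs. They were then soaked for 10 seconds in water or in test agent at 100 ppm. After moist incubation in lidded dishes, with controlled temperature and humidity and adequate indirect light, hatched larvae were counted five days post-delivery to judge hatching inhibition.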

[1] = test system: eggs of Tetranychus urticae; test: Effect on hatching of eggs of Tetranychus urticae, leaf disc method; details: 5 ppm; for Hatching rate (%): 5 days after insecticide delivery
Method in brief: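 This leaf disc test measured inhibition of Tetranychus urticae egg hatching. Eggs laid on Vicia faba discs were counted microscopically, and the discs were soaked for 10 seconds in compound at 5 ppm, with clear water as control. They were incubated under controlled temperature and humidity with strong indirect light, avoiding condensate. Hatched eggs, leaf damage and developmental abnormalities were recorded five days after delivery.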

[2] = test system: eggs of Harmonia axyridis; test: Effect on hatching of eggs of Harmonia axyridis, egg card immersion; details: 100 ppm; for Number of hatched larvae 4 days after insecticide delivery, Replicate 1 / Number of hatched larvae 4 days after insecticide delivery, Replicate 2 / Number of hatched larvae 4 days after insecticide delivery, Replicate 3: Harmonia axyridis egg cards, immersed 30 seconds; for Hatching rate (%), Replicate 1 / Hatching rate (%), Replicate 2 / Hatching rate (%), Replicate 3: Harmonia axyridis eggs, 4 days after delivery
Method in brief: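 Egg cards (~20 eggs each) dipped 30 s in 100 ppm insecticide, air dried and kept moist at 27° C; 5 cards per treatment, 3 replicates. Hatching assessed 4 days after treatment against pre-treatment egg counts, and control effect calculated by formula.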

eggs of Aleyrodidae = test: Effect on hatching of eggs of Aleyrodidae, leaf disc method; details: 10 ppm; for Hatching rate (%), Replicate 1 / Hatching rate (%), Replicate 2 / Hatching rate (%), Replicate 3 / Number of hatched larvae 5 days after insecticide delivery, Replicate 1 / Number of hatched larvae 5 days after insecticide delivery, Replicate 2 / Number of hatched larvae 5 days after insecticide delivery, Replicate 3: Aleyrodidae eggs; for Hatching rate (%), Replicate 1 / Hatching rate (%), Replicate 2 / Hatching rate (%), Replicate 3: 5 days after delivery; for Number of hatched larvae 5 days after insecticide delivery, Replicate 1 / Number of hatched larvae 5 days after insecticide delivery, Replicate 2 / Number of hatched larvae 5 days after insecticide delivery, Replicate 3: leaf disc
Method in brief: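 Leaf discs carrying Aleyrodidae eggs were first examined microscopically to record a baseline egg count. They were then dipped for 10 seconds in compound solution at 10 ppm or in clear water, taken out, and incubated with humidity maintained. Five days after delivery, the number of hatched larvae was recorded to assess hatching inhibition.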

Row | Structure (SMILES) | Hatching rate (%) (eggs of Thrips; Replicate 1) | Hatching rate (%) (eggs of Thrips; Replicate 2) | Hatching rate (%) (eggs of Thrips; Replicate 3) | Number of hatched larvae 5 days after insecticide delivery (eggs of Thrips; Replicate 1) | Number of hatched larvae 5 days after insecticide delivery (eggs of Thrips; Replicate 2) | Number of hatched larvae 5 days after insecticide delivery (eggs of Thrips; Replicate 3) | Hatching rate (%) ([1]; Replicate 1) | Hatching rate (%) ([1]; Replicate 2) | Number of hatched larvae 5 days after insecticide delivery ([1]; Replicate 1) | Number of hatched larvae 5 days after insecticide delivery ([1]; Replicate 2) | Number of hatched larvae 4 days after insecticide delivery, Replicate 1 [2] | Number of hatched larvae 4 days after insecticide delivery, Replicate 2 [2] | Number of hatched larvae 4 days after insecticide delivery, Replicate 3 [2] | Hatching rate (%), Replicate 1 [2] | Hatching rate (%), Replicate 2 [2] | Hatching rate (%), Replicate 3 [2] | Hatching rate (%), Replicate 1 (eggs of Aleyrodidae) | Hatching rate (%), Replicate 2 (eggs of Aleyrodidae) | Hatching rate (%), Replicate 3 (eggs of Aleyrodidae) | Number of hatched larvae 5 days after insecticide delivery, Replicate 1 (eggs of Aleyrodidae) | further results
1 | CC(C)(COc1ccc(Cl)cc1Cl)OS(=O)OCCF (centres unmarked) [Compound S-10] | 0.00% | 0.00% | 0.00% | 0 | 0 | 0 | 0.00% | 0.00% | 0 | 0 | 0 | 0 | 0 | 0.00% | 0.00% | 0.00% | 0.00% | 0.00% | 0.00% | 0 | inhibitory activity on the hatching of eggs of Thrips (in words) (eggs of Thrips): strong inhibitory activities; inhibitory activity on the hatching of eggs of Tetranychus urticae (in words) [1]: strong inhibitory activities; inhibitory activity on the hatching of eggs of Harmonia axyridis (in words) [2]: strong inhibitory activities; inhibitory activity on the hatching of eggs of Aleyrodidae (in words) (eggs of Aleyrodidae): strong inhibitory activities; Number of hatched larvae 5 days after insecticide delivery, Replicate 2 (eggs of Aleyrodidae): 0; Number of hatched larvae 5 days after insecticide delivery, Replicate 3 (eggs of Aleyrodidae): 0
2 | CC(C)(COS(=O)OCCF)Oc1ccc(Cl)cc1Cl (centres unmarked) [R-10′] | 13.93% | 15.05% | 13.97% | 17 | 14 | 19 | 17.72% | 16.67% | 14 | 16 | 17 | 14 | 12 | 12.78% | 13.73% | 12.77% | 9.77% | 10.23% | 10.16% | 13 | Number of hatched larvae 5 days after insecticide delivery, Replicate 2 (eggs of Aleyrodidae): 9; Number of hatched larvae 5 days after insecticide delivery, Replicate 3 (eggs of Aleyrodidae): 13
3 | CC(C)(COS(=O)OCCF)Oc1ccc(Cl)cc1Cl (centres unmarked) [S-10′] | 0.00% | 0.00% | 0.00% | 0 | 0 | 0 | 0.00% | 0.00% | 0 | 0 | 0 | 0 | 0 | 0.00% | 0.00% | 0.00% | 0.00% | 0.00% | 0.00% | 0 | inhibitory activity on the hatching of eggs of Thrips (in words) (eggs of Thrips): strong inhibitory activities; inhibitory activity on the hatching of eggs of Tetranychus urticae (in words) [1]: strong inhibitory activities; inhibitory activity on the hatching of eggs of Harmonia axyridis (in words) [2]: strong inhibitory activities; inhibitory activity on the hatching of eggs of Aleyrodidae (in words) (eggs of Aleyrodidae): strong inhibitory activities; Number of hatched larvae 5 days after insecticide delivery, Replicate 2 (eggs of Aleyrodidae): 0; Number of hatched larvae 5 days after insecticide delivery, Replicate 3 (eggs of Aleyrodidae): 0
